Here are results for four compounds from patent US20190275002A1 (priority 2018, published 2019).

Experiment [1] has as its system influenza A virus (strain A/Puerto Rico/8/1934/H1N1). Briefly: Viral load in lungs of PR8-infected mice by plaque assay on MDCK cells. Type of experiment: in vivo, C57BL/6J mice. The conditions noted are these: for Average viral load (pfu): substances in drinking water (experimental group also intraperitoneal injection).
The test system of experiment [2] is influenza A virus (strain A/Hong Kong/X31/68 H3N2). The note with it: lungs of infected mice, 1-MT in drinking water; cited from earlier work.
Experiment [3] deals with influenza A virus (strain A/Aichi/2/1968 H3N2). The note with it: 0.7 M arginine-containing solution, cited from earlier work.
For experiment [4], the system named is influenza A virus (strain A/Kumamoto/Y5/67 H2N2). The note with it: mouse, in vivo; cited from earlier work.
[5] abbreviates: mice lungs, seventh day after intranasal inoculation with 200 pfu PR8 virus.
The mark [6] stands for this setting: mice lungs, seventh day after virus inoculation.

Like-named read-outs stand apart in the source and are kept apart here.

For `Cn1cc(C[C@H](N)C(=O)O)c2ccccc21` [Inhibitor group 3, 1-methyl-tryptophan], the “Average viral load (pfu)” value in experiment [1] (setting [5]) is 4.37 × 10^3 pfu. In experiment [1] (setting [6]), the “average viral load compared with the control group” value was “significantly lower”. Besides, the “number of activated and functional CD4+ T-cells, influenza-specific CD8+ T-cells and effector memory cells” value in experiment [2] is “increased significantly”.

Consider `N=C(N)NCCC[C@H](N)C(=O)O` [arginine], for which the virus inactivation effect entry in experiment [3] (pH 4.5, on ice for 30 to 60 minutes) is listed as “most potent virus inactivation effect”; in experiment [3] (pH 5.5, on ice for 30 to 60 minutes), “no virus inactivation effect was detected”.

As to `N=C(NO)NCC[C@H](N)C(=O)O` [Inhibitor group 2, N^ω-hydroxy-nor-L-arginine acetate], the “Average viral load (pfu)” value in experiment [1] (setting [5]) is given as 2.47 × 10^3 pfu. Besides, the “average viral load compared with the control group” value in experiment [1] (setting [6]) was “significantly lower”.

In the case of `CN=C(N)NCCC[C@H](N)C(=O)O.O=C(O)CC(O)(CC(=O)O)C(=O)O` [Inhibitor group 1, L-NG-monomethyl arginine citrate], the “Average viral load (pfu)” value in experiment [1] ([…]) is on record as 4.30 × 10^3 pfu. Moreover, the “average viral load compared with the control group” value in experiment [1] (mouse, in vivo) is given as “significantly lower”. In addition, in experiment [4], the “production of NO-hemoglobin in the lungs” value is recorded as “inhibit” and the survival rate entry is “effectively increasing”.
